Data on 3 substances can be found in article PMC5922347, “Application of polymersomes engineered to target p32 protein for detection of small breast tumors in mice” (Oncotarget, 2018).

Where “and” joins values, the source holds several entries; their conditions need not be identical. Identical values can stand only once.

The nature of data set [1]: DLS size and polydispersity of polymersomes. The data set is classed as physicochemical. The note with it: 3 independent measurements. The method, then: (§1) DLS and Z-potential measurements (Zetasizer Nano ZS, Malvern Instruments, USA) were used to assess the average size, polydispersity, and surface charge of polymersome preparations. The size was measured at a concentration of 1 mg polymer/mL in PBS (10 mM of phosphate and 137 mM of NaCl). The z-potential was measured at 0.2 mg of polymer/mL in NaCl 10 mM). TEM was used to assess the size and morphology of assembled vesicles. Briefly, polymersomes were deposited from a water solution onto copper grids at 1mg/mL, stained with 0.75% phosphotungstic acid (pH 7), air-dried, and imaged by TEM (Tecnai 10, Philips, Netherlands). The number of polymersomes in the suspension was measured using the ZetaWiew instrument (Particle Metrix GmbH, Germany).

Data set [2] in a line: Z-potential measurement of polymersomes. The data set is classed as physicochemical. The note with it: 0.2 mg polymer/mL in NaCl 10 mM; 3 independent measurements. The method, then: as §1
In data set [3] the target is T1, NRP-1 (Homo sapiens, UniProt O14786). Kind of data set: Binding of radiolabeled polymersomes to NRP1-coated magnetic beads. The settings on record: 1 h incubation, gamma counter, N=3.
T1 sequence (O14786 22-923): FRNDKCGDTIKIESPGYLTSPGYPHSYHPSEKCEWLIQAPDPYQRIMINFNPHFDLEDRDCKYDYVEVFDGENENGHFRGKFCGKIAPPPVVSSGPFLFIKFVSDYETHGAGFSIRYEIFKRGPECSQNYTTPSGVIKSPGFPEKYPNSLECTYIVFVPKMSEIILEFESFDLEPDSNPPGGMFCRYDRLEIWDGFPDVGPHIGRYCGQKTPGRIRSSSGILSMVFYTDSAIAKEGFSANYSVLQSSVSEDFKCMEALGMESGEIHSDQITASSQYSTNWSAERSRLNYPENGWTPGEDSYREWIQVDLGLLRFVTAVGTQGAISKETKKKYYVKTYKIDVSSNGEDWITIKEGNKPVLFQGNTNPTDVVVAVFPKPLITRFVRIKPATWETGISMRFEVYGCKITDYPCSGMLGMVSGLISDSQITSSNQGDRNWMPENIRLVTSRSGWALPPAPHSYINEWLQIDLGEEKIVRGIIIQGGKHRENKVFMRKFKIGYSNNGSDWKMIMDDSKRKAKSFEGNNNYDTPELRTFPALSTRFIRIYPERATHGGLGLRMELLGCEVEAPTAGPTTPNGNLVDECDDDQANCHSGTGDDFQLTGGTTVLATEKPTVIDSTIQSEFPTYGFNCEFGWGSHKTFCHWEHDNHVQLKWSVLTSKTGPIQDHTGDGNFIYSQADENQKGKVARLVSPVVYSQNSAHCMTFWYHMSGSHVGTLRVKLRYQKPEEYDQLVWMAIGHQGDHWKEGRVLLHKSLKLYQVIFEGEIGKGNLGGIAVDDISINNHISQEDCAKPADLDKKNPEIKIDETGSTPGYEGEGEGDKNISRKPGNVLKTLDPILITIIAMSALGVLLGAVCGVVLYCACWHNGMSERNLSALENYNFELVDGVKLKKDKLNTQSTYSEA
In data set [4] the test system is orthotopic 4T1 breast tumors. The data set is described as follows: Ex vivo biodistribution by gamma counter in 4T1 tumor mice. On the set-up: species or system Balb/c mice. The note with it: for Increase in tumor accumulation by LinTT1 functionalization: versus untargeted polymersomes, 48 h, % ID/g. The method, then: (§2) For tumor induction, 1 million 4T1 cells in 50μL of PBS were orthotopically implanted in the mammary gland of Balb/c mice (Charles River Laboratories, Spain). After 3 days, when the tumor volume had reached ∼18 mm^3, the mice were injected in tail vein with 3.7-7.4MBq of radiolabeled polymersomes (1mg polymer, 100 μL, N=5 mice) and subjected to PET-CT scans. During the scan acquisitions the mice were kept anesthetized with 1.5−2% isofluorane blended with O2. The PET-CT scans were performed at 10 min, 2, 6, 12, 24, and 48 h using the Argus PET-CT scanner (Sedecal, Molecular Imaging, Spain). First, PET scans were acquired using the following acquisition protocol: whole body emission scan, 2 beds, 10 min of total acquisition time for the scans at 10 min, 2, 6, 12, and 24 h post-injection and 20 min for the 48 h time point. The acquisition method was static, using 400-700KeV energetic window, FBP reconstruction algorithm, with correction for scatter coincidences. For the CT scans the used current was 140μA, 40kV of voltage, rotation of 360 degrees, 4 shoots, 1 bed, acquisition time of 6 min, and a reconstruction binning of 2. After 48 h of radiolabeled polymersome injection the mice were sacrificed and the tumor, blood, and organs were excised and further used for biodistribution studies. The PET-CT images were processed with the Medical Image Data Examiner AMIDE software. The CT and PET images were overlaid, the tumor volume was manually extracted from the CT scans and the same ROI was applied in the PET images, averaged, and expressed as percentage of injected dose per cubic centimeter of tissue (ID/cc). For the rendered 3D PET-CT images, PMOD image analysis software (PMOD Technologies Ltd, Zürich, Switzerland) was used. A 3D Gauss Filter of 1.5x1.5x1.5mm was applied to the PET image in order to increase the signal to noise ratio for 3D visualization.
(§3) For biodistribution studies, the tumor, blood, and organs were weighed and the radioactivity was measured using the automatic gamma counter. A standard curve was generated using ^124I to determine the relationship between cpm and Bq. The biodistribution was expressed as percentage of injected dose per gram of tissue (ID/g). To determine the elimination rate of polymersomes, the radioactive signal in the whole mouse body was measured from the PET images at 10 min, 2, 6, 12, 24, and 48 h post-injection and normalized by the signal at 10 min post-injection. The elimination rate was expressed as signal in mouse x 100 divided by the signal at time zero.

In data set [5] the test system is human recombinant p32 protein. Kind of data set: Binding of radiolabeled polymersomes to p32-coated magnetic beads. The note with it: p32-coated Ni-NTA magnetic beads, 1 h, room temperature, 1% BSA, gamma counter, N=3. The method, then:
Recombinant hexahistidine–tagged p32 was bacterially expressed and purified as previously described. For protein binding assays, Ni-NTA magnetic agarose beads (Qiagen, Germany) in binding buffer (50 mM Tris pH 7.4, 150 mM NaCl, 5mM imidazole) were coated with p32 protein at 15 μg of protein/10μL beads. Radiolabeled polymersomes were incubated with the p32-coated beads in binding buffer containing 1% BSA at room temperature for 1 h. The magnetic beads were washed with binding buffer and resuspended in a final volume of 1mL of binding buffer. The radioactivity of each sample was quantified by automatic gamma counter (2470 Wizard 2, Perkin Elmer).

A short description of data set [6]: Elimination rate of 124I from whole-body PET signal. Also on record: species or system Balb/c mice. The note with it: mouse, in vivo. The method, then: as §3
For data set [7], the system named is orthotopic 4T1 breast tumors. The data set is described as follows: In vivo PET-CT imaging of radiolabeled polymersomes in 4T1 tumor mice. Also on record: species or system Balb/c mice. The method, then: as §2
Data set [8] concerns the target T1, NRP-1. The note with it: unless proteolytically processed by uPA; cited from earlier work.
The mark [9] stands for this setting: 48 h after i.v. injection, gamma counter.

Substance “Cys-Tyr-Ahx-LinTT1 [LinTT1-Tyr-PS, PEG-PCL polymersomes functionalized with Cys-Tyr-Ahx-LinTT1 peptide]” registered a Pdi in data set [1] (1 mg polymer/mL in PBS) of 0.15. Also, in data set [1] (intensity distribution, 1 mg polymer/mL in PBS (10 mM phosphate, 137 mM NaCl)), the “Size (hydrodynamic diameter)” value is ~130 nm and 124 ± 62 nm. The Z-pot in data set [2] is recorded as -0.1 ± 4 mV.

As for “Cys-Tyr-Ahx-LinTT1 [LinTT1-Tyr-^124I-PS, 124I-radiolabeled PEG-PCL polymersomes functionalized with Cys-Tyr-Ahx-LinTT1 peptide]”, on NRP-1 [3], the “Binding to NRP-1” value is given as “did not bind”. In data set [4] (setting [9]), the “Accumulation in sentinel lymph node relative to Tyr-124I-PS” value is listed as “more than 2 fold” and the “Ratio of % ID/g in tumor to liver” value is on record as 2.5 times. The “Accumulation in tumors at 48 h” value in data set [4] (excised tumors, gamma counter, 48 h after i.v. injection, N=6, SEM) amounted to 26±3 % ID/g. In addition, in data set [4], the “Increase in tumor accumulation by LinTT1 functionalization” value was greater than 70%. In data set [4] (listed as LinTT1-polymersomes), the “Increase in tumor accumulation by LinTT1 functionalization” value was “about 70%”. In addition, the “Increase in binding to p32 beads compared to non-targeted polymersomes” value in data set [5] was roughly 10 fold. Also, in data set [6], the “Injected polymersomes (124I) remaining in the body after 48 h” value is recorded as 45% and the “Injected polymersomes (124I) remaining in the body at 24 h” value was found to be 67%. For the same substance, the “AUC in tumor, increase over non-targeted polymersomes” value in data set [7] (AUC of % ID/cc tumor versus time, 10 min to 48 h, N=5 mice) is given as roughly 60%. The “Tumor accumulation at 48 h” value in data set [7] (PET quantification, 48 h after i.v. injection, N=5 mice, SEM) is 12±0.9 ID/cc. Moreover, in data set [7] (PET, 24 h after injection, N=5 mice), the “Tumor accumulation at 24 h, increase over untargeted polymersomes” value was found to be 67%. Further, in data set [7] (i.v., 1 mg polymer, tumors ~20 mm^3, 24 h after administration, PET quantification), the “Accumulation in tumor at 24 h” value was “up to 20 % ID/cc”. Besides, the “Tumor accumulation (no time stated)” value in data set [7] (i.v., PET quantification, discussion statement) is listed as greater than 20 % ID/cc.

With AKRGARSTA [LinTT1], the “Binding of the peptide to NRP-1” value at NRP-1 [8] is listed as “does not bind”.
